Counter-ions that a name gives are not always drawn. Some results are limits rather than exact numbers.

In the test the target is T1, KRAS G12D (Homo sapiens, UniProt P01116, G12D).
T1 construct: Recombinant human KRAS G12D (aa 2-169, expressed in E. coli); His-tag (TEV cleavable) (N); purchased Reaction Biology Corporation (RBC) SOS1: RBC cat #MSC-11-502; KRAS G12D: not given; host or cells: E. coli
T1 sequence (P01116 2-169 G12D): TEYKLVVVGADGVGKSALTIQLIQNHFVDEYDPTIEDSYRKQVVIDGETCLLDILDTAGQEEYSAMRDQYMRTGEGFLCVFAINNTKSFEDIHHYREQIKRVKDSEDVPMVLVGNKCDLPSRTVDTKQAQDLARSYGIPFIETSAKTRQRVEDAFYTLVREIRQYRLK
The experiment in a line: KRAS G12D/SOS1 Nucleotide Exchange Assay (SOS1-mediated Bodipy-GDP to GTP exchange). The class given is biochemical. The following applies: rate constant method (plateau = 0), Bodipy-GDP/KRAS G12D as substrate, 0.5% DMSO, 30 min pre-incubation at RT. As for the experimental part: The compound pre-incubation time was 30 min at RT and the curve fits were performed when the activities at the highest concentration of compounds were less than 65%.
Reaction Buffer: 40 mM HEPES 7.4, 10 mM MgCl2, 1 mM DTT 0.002% Triton ×100, 0.5% DMSO.
KRAS is pre-loaded with a 5-fold excess of Bodipy-GDP. The excess Bodipy-GDP is separated from loaded protein using a spin desalting column.
• 1. Deliver 10 μL of 1.5× KRAS solution in freshly prepared reaction buffer to reaction wells. • 2. Deliver compounds in 100% DMSO into buffer using acoustic technology (Echo550; nanoliter range). • 3. Incubate compounds with KRAS for 30 minutes at room temperature. • 4. Prepare 3× (SOS1+GTP) solution in reaction buffer. • 5. Deliver 5 μL of SOS1+GTP solution into reactions wells (deliver GTP only to column 1 for no SOS1 control). • 6.
Data Analysis: The fluorescence data was normalized using the equation below and fitted to “one phase exponential decay” equation using GraphPad prism software. The plateau was fixed to zero (use for non-covalent inhibitors) and rate ×1000 was used to calculate the IC50 values.
[formula] • where Yraw is defined as fluorescence at time t, Ao is the average initial fluorescence with no SOS1, and M is the minimum fluorescence at the end of the reaction at the maximum SOS1.
The background subtracted signals (no SOS1 protein wells were used as background) were converted to % activity relative to DMSO controls. Data was analyzed using GraphPad Prism 4 with “sigmoidal dose-response (variable slope)”; 4 parameters with Hill Slope. The constraints were bottom (constant equal to 0) and top (must be less than 120).
By IC50 is commonly meant the concentration that gives 50% inhibition. High values mean lower potency, low ones higher potency. Compound `Oc1cc(-c2cnc3c(N4C[C@H]5CC[C@@H](C4)N5)nc(OCC45CCCN4CCC5)nc3c2)c2ccccc2c1` [Example 2, 4-(4-((1R,5S)-3,8-Diazabicyclo[3.2.1]octan-3-yl)-2-((tetrahydro-1H-pyrrolizin-7a(5H)-yl)methoxy)pyrido[3,2-d]pyrimidin-7-yl)naphthalen-2-ol] registered an IC50 of 0.035 ± 0.0057 µM.
To `Clc1cccc2cccc(-c3ccc4c(N5C[C@H]6CC[C@@H](C5)N6)nc(OCC56CCCN5CCC6)nc4n3)c12` [Example 4, 4-((1R,5S)-3,8-diazabicyclo[3.2.1]octan-3-yl)-7-(8-chloronaphthalen-1-yl)-2-((tetrahydro-1H-pyrrolizin-7a(5H)-yl)methoxy)pyrido[2,3-d]pyrimidine] belongs 8.6 µM.
With `Clc1cccc2cccc(-c3cnc4c(N5C[C@H]6CC[C@@H](C5)N6)nc(OCC56CCCN5CCC6)nc4c3)c12` [Example 1, 4-((1R,5S)-3,8-Diazabicyclo[3.2.1]octan-3-yl)-7-(8-chloronaphthalen-1-yl)-2-((tetrahydro-1H-pyrrolizin-7a(5H)-yl)methoxy)pyrido[3,2-d]pyrimidine hydrochloride (1:3)] the figure was 0.61 µM.
With `CN1CCC[C@H]1COc1nc(N2C[C@H]3CC[C@@H](C2)N3)c2ccc(-c3cccc4cccc(Cl)c34)nc2n1` [Example 3, 4-((1R,5S)-3,8-Diazabicyclo[3.2.1]octan-3-yl)-7-(8-chloronaphthalen-1-yl)-2-(((S)-1-methylpyrrolidin-2-yl)methoxy)pyrido[2,3-d]pyrimidine] the figure was more than 10 µM; with `C#Cc1c(F)ccc2cc(O)cc(-c3cnc4c(N5C[C@H]6CC[C@@H](C5)N6)nc(OC[C@@]56CCCN5C[C@H](F)C6)nc4c3)c12` [Example 5, 4-(4-((1R,5S)-3,8-Diazabicyclo[3.2.1]octan-3-yl)-2-(((2R,7aS)-2-fluorotetrahydro-1H-pyrrolizin-7a(5H)-yl)methoxy)pyrido[3,2-d]pyrimidin-7-yl)-5-ethynyl-6-fluoronaphthalen-2-ol], 0.028 µM.

The values above are taken from patent publication US20250250286A1, “FUSED PYRIMIDINE DERIVATIVES AS KRAS ONCOPROTEIN INHIBITORS” (BETA PHARMA, INC., priority 2021, published 2025).
